Reference: ChEMBL document CHEMBL3045344, “Synthesis of d-amino acid peptides and their effect on beta-amyloid aggregation and toxicity in transgenic Caenorhabditis elegans” (Med Chem Res, 2013)
The source made the active and inactive calls. The calls are words filed in the database; no cut-off is given here. Square brackets hold non-standard residues; d marks the D form. Peptide text beside a SMILES is read from it.

Assays:
[1] = biological target: Amyloid-beta precursor protein (Homo sapiens) (UniProt P05067); assay: Stabilization of random coil conformation of amyloid beta (1-42) (unknown origin) after 3 days by CD spectroscopy
[2] = system: Caenorhabditis elegans; assay: Increase in survival of transgenic Caenorhabditis elegans CL2006 expressing human amyloid beta42 at 124 ug/ml; format: functional, organism-based
[3] = biological target: Amyloid-beta precursor protein (Homo sapiens) (UniProt P05067); assay: Inhibition of amyloid beta (1-42) (unknown origin) oligomer formation after 48 hr by silver staining
[4] = biological target: Amyloid-beta precursor protein (Homo sapiens) (UniProt P05067); assay: Inhibition of amyloid beta (1-42) (unknown origin) fibril formation at Abeta42/compound molar ratio of 1:5 after 3 days by thioflavin T fluorescence method
[5] = biological target: Amyloid-beta precursor protein (Homo sapiens) (UniProt P05067); assay: Inhibition of amyloid beta (1-42) (unknown origin) assembly assessed as decrease in fibril formation after 3 days by ThT stain based fluorescence microscopy
[6] = biological target: Amyloid-beta precursor protein (Homo sapiens) (UniProt P05067); assay: Induction of amyloid beta (1-42) (unknown origin) aggregation at Abeta42/compound molar ratio of 1:1 after 3 days by turbidity based assay
[7] = biological target: Amyloid-beta precursor protein (Homo sapiens) (UniProt P05067); assay: Binding affinity to amyloid beta (1-42) (unknown origin) assessed as increase in hydrophobic site exposure at Abeta42/compound molar ratio of 1:5 after 3 days by ANS fluorescence analysis
[8] = biological target: Amyloid-beta precursor protein (Homo sapiens) (UniProt P05067); assay: Induction of amyloid beta (1-42) (unknown origin) aggregation at Abeta42/compound molar ratio of 1:5 after 3 days by turbidity based assay
[9] = biological target: Amyloid-beta precursor protein (Homo sapiens) (UniProt P05067); assay: Inhibition of amyloid beta (1-42) (unknown origin) fibril formation at Abeta42/compound molar ratio of 1:1 after 3 days by thioflavin T fluorescence method
[10] = biological target: Amyloid-beta precursor protein (Homo sapiens) (UniProt P05067); assay: Binding affinity to amyloid beta (1-42) (unknown origin) assessed as increase in hydrophobic site exposure at Abeta42/compound molar ratio of 1:1 after 3 days by ANS fluorescence analysis
[11] = biological target: Amyloid-beta precursor protein (Homo sapiens) (UniProt P05067); assay: Induction of amyloid beta (1-42) (unknown origin) oligomer formation after 48 hr by silver staining
[12] = system: Caenorhabditis elegans; assay: Increase in survival of transgenic Caenorhabditis elegans CL2006 expressing human amyloid beta42 at 123 ug/ml; format: functional, organism-based
[13] = biological target: Amyloid-beta precursor protein (Homo sapiens) (UniProt P05067); assay: Inhibition of amyloid beta (1-42) (unknown origin) aggregation at Abeta42/compound molar ratio of 1:1 after 3 days by turbidity based assay
[14] = biological target: Amyloid-beta precursor protein (Homo sapiens) (UniProt P05067); assay: Induction of amyloid beta (1-42) (unknown origin) assembly assessed as mixed fibril and spherical aggregate formation after 3 days by ThT stain based fluorescence microscopy
[15] = biological target: Amyloid-beta precursor protein (Homo sapiens) (UniProt P05067); assay: Inhibition of amyloid beta (1-42) (unknown origin) aggregation at Abeta42/compound molar ratio of 1:5 after 3 days by turbidity based assay

Sequence of Amyloid-beta precursor protein (Homo sapiens) (P05067 whole entry): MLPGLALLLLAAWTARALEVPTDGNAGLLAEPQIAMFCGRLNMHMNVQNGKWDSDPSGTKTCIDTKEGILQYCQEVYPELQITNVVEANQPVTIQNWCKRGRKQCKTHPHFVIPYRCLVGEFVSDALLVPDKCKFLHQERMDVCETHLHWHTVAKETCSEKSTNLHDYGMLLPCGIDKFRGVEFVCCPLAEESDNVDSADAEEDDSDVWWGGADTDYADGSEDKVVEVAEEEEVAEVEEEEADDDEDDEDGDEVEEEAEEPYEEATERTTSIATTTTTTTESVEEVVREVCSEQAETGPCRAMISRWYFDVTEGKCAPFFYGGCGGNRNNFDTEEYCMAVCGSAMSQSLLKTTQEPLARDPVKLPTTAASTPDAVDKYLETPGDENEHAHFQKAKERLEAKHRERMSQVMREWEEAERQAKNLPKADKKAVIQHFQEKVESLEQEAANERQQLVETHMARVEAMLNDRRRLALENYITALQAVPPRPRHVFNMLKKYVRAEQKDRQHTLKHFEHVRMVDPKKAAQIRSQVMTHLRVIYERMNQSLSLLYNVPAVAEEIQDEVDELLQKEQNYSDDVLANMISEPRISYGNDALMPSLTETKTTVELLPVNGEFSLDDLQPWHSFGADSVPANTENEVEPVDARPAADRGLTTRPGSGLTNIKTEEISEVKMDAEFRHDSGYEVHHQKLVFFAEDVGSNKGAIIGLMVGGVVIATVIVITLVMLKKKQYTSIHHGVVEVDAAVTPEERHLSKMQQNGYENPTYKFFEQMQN

Activity [1] | inhibition [3] | inhibition [4] | inhibition [5] | Activity [6] | Activity [7] | Activity [8] | inhibition [9] | Activity [10] | Activity [11] | inhibition [13] | Activity [14] | inhibition [15] | Structure (SMILES) | Activity [2] | Activity [12]
Active | Active | Active | Active | Active | Active | Active | Active | Active | – | – | – | – | CC(C)C[C@@H](NC(=O)[C@@H](CCCCN)NC(=O)[C@H](N)CCCCN)C(=O)N[C@@H](C(=O)N[C@H](Cc1ccccc1)C(=O)N[C@H](Cc1ccccc1)C(=O)N[C@H](C)C(=O)O)C(C)C (H-[dK][dK][dL][dV][dF][dF][dA]-OH) | Active | –
Active | – | Active | Active | Active | Active | Active | Active | Active | Active | – | – | – | CC(C)C[C@@H](NC(=O)[C@@H](CCCCN)NC(=O)[C@H](N)CCCCN)C(=O)N[C@@H](C(=O)N[C@H](Cc1ccccc1)C(=O)N[C@H](Cc1ccccc1)C(=O)N[C@H](C)C(=O)N[C@H](CCCNC(=N)N)C(=O)N[C@H](CCCNC(=N)N)C(=O)N[C@H](CCCNC(=N)N)C(=O)N[C@H](CCCNC(=N)N)C(=O)N[C@H](C)C(=O)O)C(C)C | – | inactive
Active | Active | inactive | – | – | Active | – | inactive | Active | – | Active | Active | Active | CC(C)C[C@@H](NC(=O)[C@@H](CCCCN)NC(=O)CNC(=O)[C@H]1CCCN1)C(=O)N[C@@H](C(=O)N[C@H](Cc1ccc(O)cc1)C(=O)N[C@H](C)C(=O)O)C(C)C | Active | –
